The target in assay [1] is Phosphatidylinositol 3-kinase regulatory subunit beta (Homo sapiens, UniProt O00459). As to the kind of experiment: (§1) PI 3-Kinase HTRF Assay: Briefly, the assay is a time resolved FRET assay that indirectly measures PIP3 product formed by the activity of a PI3-K. The kinase reaction is performed in a microtitre plate (e.g., a 384 well microtitre plate). The total reaction volume is approximately 20 ul per well. In the first step, each well receives 2 ul of test compound in 20% dimethylsulphoxide resulting in a 2% DMSO final concentration. Next, approximately 14.5 ul of a kinase/PIP2 mixture (diluted in 1x reaction buffer) is added per well for a final concentration of 0.25-0.3 ug/ml kinase and 10 uM PIP2. The plate is sealed and incubated for 15 minutes at room temperature. To start the reaction, 3.5 ul of ATP (diluted in 1x reaction buffer) is added per well for a final concentration of 10 uM ATP. The plate is sealed and incubated for 1 hour at room temperature. The reaction is stopped by adding 5 ul of Stop Solution per well and then 5 ul of Detection Mix is added per well. The plate is sealed, incubated for 1 hour at room temperature, and then read on an appropriate plate reader. (In general: TR-FRET usually uses a lanthanide donor and a delayed reading to cut background.)
Phosphatidylinositol 3-kinase regulatory subunit beta, sequence (O00459 whole entry): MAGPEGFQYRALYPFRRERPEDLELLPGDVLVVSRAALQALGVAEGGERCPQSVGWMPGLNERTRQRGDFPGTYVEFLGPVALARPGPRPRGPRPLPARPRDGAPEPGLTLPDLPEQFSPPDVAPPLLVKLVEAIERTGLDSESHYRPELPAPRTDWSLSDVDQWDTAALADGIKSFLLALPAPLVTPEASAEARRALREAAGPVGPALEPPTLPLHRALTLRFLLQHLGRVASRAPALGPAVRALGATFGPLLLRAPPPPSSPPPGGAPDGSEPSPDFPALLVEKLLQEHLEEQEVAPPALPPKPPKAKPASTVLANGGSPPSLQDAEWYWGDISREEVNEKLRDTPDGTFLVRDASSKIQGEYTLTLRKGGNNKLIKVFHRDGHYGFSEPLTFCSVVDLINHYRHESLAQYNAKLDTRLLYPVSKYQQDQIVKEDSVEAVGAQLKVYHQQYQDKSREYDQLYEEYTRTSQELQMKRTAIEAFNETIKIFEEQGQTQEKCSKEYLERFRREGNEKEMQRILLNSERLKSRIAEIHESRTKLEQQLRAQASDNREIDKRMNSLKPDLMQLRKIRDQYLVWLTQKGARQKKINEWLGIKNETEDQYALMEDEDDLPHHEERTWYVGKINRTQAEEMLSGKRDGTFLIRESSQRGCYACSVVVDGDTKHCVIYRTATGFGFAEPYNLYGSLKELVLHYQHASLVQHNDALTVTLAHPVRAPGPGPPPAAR

Assay [2] addresses Phosphatidylinositol 4,5-bisphosphate 3-kinase catalytic subunit gamma isoform (Homo sapiens, UniProt P48736). Described as §1.
For assay [3], the target named is T1, Phosphatidylinositol 4,5-bisphosphate 3-kinase catalytic subunit delta isoform (Homo sapiens, UniProt O00329).
T1 sequence (O00329 whole entry): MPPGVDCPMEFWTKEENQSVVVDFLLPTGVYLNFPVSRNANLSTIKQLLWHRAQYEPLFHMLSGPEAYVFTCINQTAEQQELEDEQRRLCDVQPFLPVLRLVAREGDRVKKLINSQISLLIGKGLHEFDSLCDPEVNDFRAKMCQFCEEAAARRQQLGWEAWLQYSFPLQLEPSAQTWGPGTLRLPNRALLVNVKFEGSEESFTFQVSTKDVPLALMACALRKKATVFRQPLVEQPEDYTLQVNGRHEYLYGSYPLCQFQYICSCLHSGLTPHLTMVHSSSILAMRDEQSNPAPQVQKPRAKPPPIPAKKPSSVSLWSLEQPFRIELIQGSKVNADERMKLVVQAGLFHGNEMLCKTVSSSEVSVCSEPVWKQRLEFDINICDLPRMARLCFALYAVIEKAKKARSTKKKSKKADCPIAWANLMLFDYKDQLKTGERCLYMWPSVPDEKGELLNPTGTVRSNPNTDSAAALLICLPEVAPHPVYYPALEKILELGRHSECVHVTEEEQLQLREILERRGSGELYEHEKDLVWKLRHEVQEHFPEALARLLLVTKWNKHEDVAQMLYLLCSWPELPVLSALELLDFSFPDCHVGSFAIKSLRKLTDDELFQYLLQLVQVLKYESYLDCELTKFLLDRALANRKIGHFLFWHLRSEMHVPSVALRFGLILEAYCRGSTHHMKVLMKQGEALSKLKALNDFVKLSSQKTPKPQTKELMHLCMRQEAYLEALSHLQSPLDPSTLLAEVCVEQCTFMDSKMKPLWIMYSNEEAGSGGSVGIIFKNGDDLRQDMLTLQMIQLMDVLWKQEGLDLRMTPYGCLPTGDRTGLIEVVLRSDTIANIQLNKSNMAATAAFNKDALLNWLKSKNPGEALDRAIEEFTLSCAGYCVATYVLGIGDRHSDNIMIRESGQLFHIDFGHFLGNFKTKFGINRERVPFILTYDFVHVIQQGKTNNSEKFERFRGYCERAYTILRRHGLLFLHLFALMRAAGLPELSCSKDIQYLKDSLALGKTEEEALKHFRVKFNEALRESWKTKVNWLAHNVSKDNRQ
The assay is described as §1.

Assay [4] in a line: as §1.

Our source for the IC50 values is ChEMBL document CHEMBL5725325, “Combination of kinase inhibitors and uses thereof” (2017).

Phosphatidylinositol 4,5-bisphosphate 3-kinase catalytic subunit gamma isoform, sequence (P48736 whole entry, canonical isoform): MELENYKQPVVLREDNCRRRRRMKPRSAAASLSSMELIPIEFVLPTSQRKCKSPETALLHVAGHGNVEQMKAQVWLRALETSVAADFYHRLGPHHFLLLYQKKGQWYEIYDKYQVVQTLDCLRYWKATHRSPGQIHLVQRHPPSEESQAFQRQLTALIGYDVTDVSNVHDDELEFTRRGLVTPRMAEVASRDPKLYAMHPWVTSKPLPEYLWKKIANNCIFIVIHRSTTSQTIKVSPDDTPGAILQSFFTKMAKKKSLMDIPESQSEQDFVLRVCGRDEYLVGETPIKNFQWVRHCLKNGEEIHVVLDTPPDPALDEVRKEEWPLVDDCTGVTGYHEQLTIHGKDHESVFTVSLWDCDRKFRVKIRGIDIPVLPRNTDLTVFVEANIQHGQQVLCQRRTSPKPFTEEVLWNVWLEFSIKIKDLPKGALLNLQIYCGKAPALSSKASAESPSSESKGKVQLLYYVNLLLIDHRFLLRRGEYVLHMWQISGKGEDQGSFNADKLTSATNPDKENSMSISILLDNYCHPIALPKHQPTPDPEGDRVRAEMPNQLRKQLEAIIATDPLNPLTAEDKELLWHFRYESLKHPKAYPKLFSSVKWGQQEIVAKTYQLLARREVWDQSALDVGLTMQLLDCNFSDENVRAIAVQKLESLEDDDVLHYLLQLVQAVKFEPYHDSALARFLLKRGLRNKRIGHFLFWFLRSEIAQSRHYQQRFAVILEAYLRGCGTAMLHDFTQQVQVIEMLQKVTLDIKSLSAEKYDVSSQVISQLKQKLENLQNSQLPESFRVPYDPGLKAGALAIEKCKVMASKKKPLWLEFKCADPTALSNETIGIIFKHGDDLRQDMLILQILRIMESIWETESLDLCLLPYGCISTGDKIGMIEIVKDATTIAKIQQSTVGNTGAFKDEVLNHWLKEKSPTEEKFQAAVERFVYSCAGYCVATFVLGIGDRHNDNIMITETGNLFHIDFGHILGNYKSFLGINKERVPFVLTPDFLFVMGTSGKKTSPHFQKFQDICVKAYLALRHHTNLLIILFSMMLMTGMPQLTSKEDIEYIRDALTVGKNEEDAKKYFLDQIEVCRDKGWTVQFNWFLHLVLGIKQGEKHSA

Regarding `CC(C)(N)C(=O)N1CCN(c2cnc3ccc(-c4ccc5oc(N)nc5c4)nc3n2)CC1`, the IC50 – broadly, the concentration that inhibits the measured activity by half – in assay [1] was less than 10000 nM. On the same count and under the same terms, under `C[C@@H](N)C(=O)N1CCN(c2cnc3ccc(-c4ccc5oc(N)nc5c4)nc3n2)CC1` stands less than 100 nM.

As for `Nc1nc2cc(-c3ccc4ncc(C(=O)N5CCC(N6CCC(F)(F)C6)C5)n4c3)ccc2o1` (stereo not drawn), the IC50 in assay [2] and in assay [3] was less than 10000 nM in each case. `C[C@@H]1COCCN1C1CN(c2cnc3ccc(-c4ccc5oc(N)nc5c4)nc3n2)C1`: the IC50 in assay [4] was less than 100 nM. For `Nc1nc2cc(-c3ccc4ncc(N5CCN(C(=O)C6CCCN6)CC5)nc4c3)ccc2o1` (stereo not drawn), the IC50 in assay [4] and in assay [1] was less than 100 nM each time. As to `Nc1nc2cc(-c3ccc4ncn(-c5ccccc5)c4c3)ccc2o1`, in assay [2], the IC50 was less than 1000 nM.
